Holding throughout (type): cell-based, human
For assay [1], the system named is Hct116 resistant cell line clone #152 (p97 T688I). Description: GI50 fold-change, resistant clone #152 vs parental. Particulars: Clone #152, Hct116, resistance generated with compound 4, C2063T / T688I, 72 hrs. The protocol:
(§1) Dose titration of test compounds were conducted in Hct116, DLD-1, or LoVo cell lines. In brief, cells were plated in 384-well plates and a selected candidate drug compound was added in a 10-point 2-fold serial dilution. […] Hct116 cells were plated at 50,000 cells per 15 cm dish and treated with GI50-GI90 doses of test compound for 2-4 weeks until individual colonies of cells were visible on the plate.

Assay [2] deals with DLD-1 resistant cell line clone #87 (p97 S541P). Description: GI50 fold-change, resistant clone #87 vs parental. Particulars: Clone #87, DLD-1, resistance generated with compound 4, T1621T/C / S541P; 72 hrs. As for the experimental part: (§2) Dose titration of test compounds were conducted in Hct116, DLD-1, or LoVo cell lines. In brief, cells were plated in 384-well plates and a selected candidate drug compound was added in a 10-point 2-fold serial dilution.

Assay [3] deals with Hct116 resistant cell line clone #1 (p97 D649N). Description: GI50 fold-change, resistant clone #1 vs parental. Particulars: Clone #1, Hct116, resistance generated with compound 2, G1945A / D649N; 72 hrs. The protocol:
as §2

Assay [4] has as its system DLD-1 resistant cell line clone #83 (p97 N660N/D). Description: GI50 fold-change, resistant clone #83 vs parental. The note with it: Clone #83, DLD-1, resistance generated with compound 4, A1978G/A / N660N/D; 72 hrs. As for the experimental part: as §2
The subject of assay [5] is DLD-1 resistant cell line clone #61 (p97 I620I/L). As to the kind of experiment: GI50 fold-change, resistant clone #61 vs parental. The note with it: Clone #61, DLD-1, resistance generated with compound 4, T1859T/C / I620I/L; 72 hrs. As for the experimental part: as §2
Assay [6] deals with DLD-1 resistant cell line clone #64 (p97 N660N/S). As to the kind of experiment: GI50 fold-change, resistant clone #64 vs parental. Particulars: Clone #64, DLD-1, resistance generated with compound 4, A1979G/A / N660N/S; 72 hrs. The protocol: as §2
The test system of assay [7] is DLD-1 resistant cell line clone #58 (p97 D649D/N). Description: GI50 fold-change, resistant clone #58 vs parental. Particulars: Clone #58, DLD-1, resistance generated with compound 4, G1945G/A / D649D/N; 72 hrs. The protocol:
as §2

In assay [8] the test system is LoVo resistant cell line clone #221 (p97 V474V/A). Description: GI50 fold-change, resistant clone #221 vs parental. Particulars: Clone #221, LoVo, resistance generated with compound 4, T1421C/T / V474V/A; 72 hrs. The protocol: as §1
Assay [9] has as its system Hct116 resistant cell line clone #108 (p97 P646T). As to the kind of experiment: GI50 fold-change, resistant clone #108 vs parental. Particulars: Clone #108, Hct116, resistance generated with compound 4, C1936A / P646T; 72 hrs. As for the experimental part: as §1
Assay [10] relates to Hct116 resistant cell line clone #25 (p97 P500T). As to the kind of experiment: GI50 fold-change, resistant clone #25 vs parental. The note with it: Clone #25, Hct116, resistance generated with compound 4, C1498A / P500T; 72 hrs. The protocol: as §2
Assay [11] deals with Hct116 resistant cell line clone #42 (p97 P472A). Description: GI50 fold-change, resistant clone #42 vs parental. Particulars: Clone #42, Hct116, resistance generated with compound 4, C1414G / P472A; 72 hrs. As for the experimental part:
as §2

Assay [12] deals with Hct116 resistant cell line clone #45 (p97 F539I). As to the kind of experiment: GI50 fold-change, resistant clone #45 vs parental. Particulars: Clone #45, Hct116, resistance generated with compound 4, T1615A / F539I; 72 hrs. The protocol: as §2
Assay [13] deals with Hct116 resistant cell line clone #6 (p97 A528T). As to the kind of experiment: GI50 fold-change, resistant clone #6 vs parental. Particulars: Clone #6, Hct116, resistance generated with compound 2, G1582 / A528T; 72 hrs. As for the experimental part:
as §2

The test system of assay [14] is DLD-1 resistant cell line clone #82 (p97 A569A/T). As to the kind of experiment: GI50 fold-change, resistant clone #82 vs parental. The note with it: Clone #82, DLD-1, resistance generated with compound 4, G1705G/A / A569A/T; 72 hrs. As for the experimental part:
as §2

Assay [15] deals with Hct116 resistant cell line clone #30 (p97 F516L). Description: GI50 fold-change, resistant clone #30 vs parental. The note with it: Clone #30, Hct116, resistance generated with compound 4, T1546C / F516L; 72 hrs. As for the experimental part: as §2
The test system of assay [16] is Hct116 resistant cell line clone #117 (p97 L482I). Description: GI50 fold-change, resistant clone #117 vs parental. Particulars: Clone #117, Hct116, resistance generated with compound 4, C1444A / L482I; 72 hrs. As for the experimental part:
as §2

Assay [17] deals with Hct116 resistant cell line clone #139 (p97 P472S). As to the kind of experiment: GI50 fold-change, resistant clone #139 vs parental. The note with it: Clone #139, Hct116, resistance generated with compound 4, C1414T / P472S; 72 hrs. As for the experimental part: as §2
Assay [18] deals with Hct116 resistant cell line clone #180 (p97 A569T). As to the kind of experiment: GI50 fold-change, resistant clone #180 vs parental. Particulars: Clone #180, Hct116, resistance generated with compound 4, G1705A / A569T; 72 hrs. The protocol: as §2
Assay [19] concerns Hct116 resistant cell line clone #29 (p97 N660K). As to the kind of experiment: GI50 fold-change, resistant clone #29 vs parental. The note with it: Clone #29, Hct116, resistance generated with compound 4, C1980A / N660K; 72 hrs. As for the experimental part:
as §2

Assay [20] relates to Hct116 resistant cell line clone #27 (p97 T688A). As to the kind of experiment: GI50 fold-change, resistant clone #27 vs parental. The note with it: Clone #27, Hct116, resistance generated with compound 4, A2062G / T688A; 72 hrs. As for the experimental part: as §2
Assay [21] relates to Hct116 resistant cell line clone #31 (p97 C535Y). Description: GI50 fold-change, resistant clone #31 vs parental. Particulars: Clone #31, Hct116, resistance generated with compound 4, G1604A / C535Y; 72 hrs. As for the experimental part:
as §2

Assay [22] concerns Hct116 resistant cell line clone #207 (p97 V485D). Description: GI50 fold-change, resistant clone #207 vs parental. Particulars: Clone #207, Hct116, resistance generated with compound 4, T1454A / V485D; 72 hrs. As for the experimental part:
as §2

In assay [23] the test system is Hct116 resistant cell line clone #90 (p97 Q473P). Description: GI50 fold-change, resistant clone #90 vs parental. The note with it: Clone #90, Hct116, resistance generated with compound 4, A1418C / Q473P; 72 hrs. As for the experimental part:
as §2

The test system of assay [24] is Hct116 resistant cell line clone #33 (p97 P472L). Description: GI50 fold-change, resistant clone #33 vs parental. The note with it: Clone #33, Hct116, resistance generated with compound 4, C1415T / P472L; 72 hrs. As for the experimental part:
as §2

The test system of assay [25] is Hct116 resistant cell line clone #47 (p97 E498D). As to the kind of experiment: GI50 fold-change, resistant clone #47 vs parental. The note with it: Clone #47, Hct116, resistance generated with compound 4, G1494T / E498D; 72 hrs. The protocol: as §2
The subject of assay [26] is Hct116 resistant cell line clone #22 (p97 N660D). As to the kind of experiment: GI50 fold-change, resistant clone #22 vs parental. The note with it: Clone #22, Hct116, resistance generated with compound 4, A1978G / N660D; 72 hrs. The protocol:
as §2

Assay [27] deals with Hct116 resistant cell line clone #137 (p97 T475I). As to the kind of experiment: GI50 fold-change, resistant clone #137 vs parental. Particulars: Clone #137, Hct116, resistance generated with compound 4, C1424T / T475I; 72 hrs. The protocol: as §2
Assay [28] has as its system Hct116 resistant cell line clone #34 (p97 E470D/E). Description: GI50 fold-change, resistant clone #34 vs parental. Particulars: Clone #34, Hct116, resistance generated with compound 4, G1410T/G / E470D/E; 72 hrs. The protocol:
as §2

Structures are written as SMILES. Where “and” joins values, the source holds several entries; their conditions need not be identical. Equal values may be shown once.

Take `COc1nc2ccccc2n1-c1nc2c(c(NCc3ccccc3)n1)CCCC2` [Compound 2, N-benzyl-2-(2-methoxy-1H-1,3-benzodiazol-1-yl)-5,6,7,8-tetrahydroquinazolin-4-amine]: the “Fold Change in GI50 Compared to Parental Cell Line” value (from here on “Fold Change”) in assay [1] was 2.1 fold; in assay [2] it was 1.3 fold; in assay [3], 4.5 fold; in assay [4], 2.6 fold; in [5], 1.1 fold; in assay [6], 0.6 fold. The “Fold Change” value in [7] is 1.4 fold; in [8] it was 2.2 fold; in assay [9] it was 1.3 fold.

On to `Cc1cc2c(C(N)=O)cccc2n1-c1nc2c(c(NCc3ccccc3)n1)CNCC2` [Compound 3, 1-[4-(benzylamino)-5H,6H,7H,8H-pyrido[4,3-d]pyrimidin-2-yl]-2-methyl-1H-indole-4-carboxamide], for which the “Fold Change” value in assay [10] turned out to be 2.2 fold; in assay [1], 40.2 fold; in assay [2], 34.6 fold; in [4] it was 2.4 fold; in assay [11], 7.0 fold; in assay [5], 1.0 fold. Also, the “Fold Change” value in assay [12] was found to be 6.9 fold; in [13], 13.4 fold; in assay [14], 4.9 fold; in [6] it was 1.2 fold; in assay [15], 10.0 fold; in assay [7] it was 2.0 fold. Besides, the “Fold Change” value was found to be 4.1 fold in assay [8], 1.6 fold in assay [9], 4.4 fold in assay [16] and 4.2 fold in assay [17].

As for `Cc1cc2c(CN)cccc2n1-c1nc2c(c(NCc3ccccc3)n1)CCCC2` [Compound 6, 2-[4-(aminomethyl)-2-methyl-1H-indol-1-yl]-N-benzyl-5,6,7,8-tetrahydroquinazolin-4-amine], the “Fold Change” value was 3.4 fold in assay [18]; 1.9 fold in [10]; 1.4 fold in assay [1]; 1.4 fold and 1.42 fold in [1] (listed as compound 6); 0.9 fold in assay [2]; 1.3 fold in [4]. For the same compound, the “Fold Change” value was 3.5 fold in assay [11]; 3.3 fold in assay [5]; 3.8 fold in [19]; 3.4 fold in assay [12]; 2.3 fold in [20]; 3.3 fold in assay [21]. In addition, the “Fold Change” value in [22] came to 2.7 fold; in [14], 4.5 fold; in assay [23], 2.1 fold; in assay [24] it was 5.3 fold; in [6] it was 2.7 fold; in assay [15], 4.1 fold. The “Fold Change” value in assay [7] stood at 2.0 fold; in assay [8], 2.2 fold; in [25], 1.8 fold; in assay [9], 1.6 fold; in [26], 1.8 fold; in assay [27], 2.8 fold. For the same compound, the “Fold Change” value in [16] stood at 2.3 fold; in assay [17], 3.5 fold; in [28] it was 2.7 fold.
